Reference: US9381193B2, “Contraceptive methods and compositions” (WASHINGTON UNIVERSITY, priority 2011, dated 2016)

How the values were obtained:
[1] = system: FVB/NJ mice; test: Serum hormone concentration in DHEA-fed mice (ELISA); type: in vivo, mouse
Excerpt: Female FVB/NJ mice were obtained from Jackson Laboratories (Bar Harbor, Me., USA). Regular rodent chow was supplemented with DHEA at 0.01%, 0.1% and 0.6% w/w. Three-week-old mice had access to food and water ad libitum. Mice were fed control or DHEA-supplemented chow for two weeks. The Animal Studies Committee at Washington University School of Medicine reviewed and approved all animal experiments. Animals were maintained according to the Guide for the Care and Use of Laboratory Animals provided by the Institute for Laboratory Animal Research.
Control and DHEA-fed mice were superovulated with 10 IU pregnant mare serum gonadotropin (PMSG) by i.p. injection. DHEA, estradiol and testosterone serum concentrations were measured 48 hours later. For progesterone concentrations, mice were given an i.p. injection of 10 IU hCG 48 hours after PMSG and blood was collected 24 hours later. Mice were anesthetized with 50 μl ketamine and xylazine (1:1) and blood was collected by cardiac puncture. Serum was separated by centrifugation and stored at −20° C. ELISA assays were used to determine serum hormone concentrations (Alpco, Salem, N.H., USA).

[2] = system: denuded GV oocytes; test: ATP and citrate levels in single denuded GV oocytes of DHEA-fed mice; type: in vivo, mouse
Excerpt: COCs were collected following superovulation with PMSG. Ovaries were removed and placed in M2 media (Sigma, St. Louis, Mo., USA). COCs were obtained by rupture of antral follicles with a syringe and needle. To collect denuded germinal vesicle (GV) oocytes, the cumulus cells were removed by gentle pipetting. The oviducts were removed from PMSG- and hCG-primed mice. The ampulla of the oviduct was punctured to release the clutch of ovulated oocytes 24 hr after hCG.
Denuded oocytes or cultured blastocysts were frozen on a glass slide with liquid nitrogen and dried overnight at −35° C. under vacuum. Individual oocytes or blastocysts were extracted in nanoliter volume under oil. Assays were designed to measure ATP, citrate and G6PDH by linking with NAD/NADH or NADP/NADPH which are enzymatically amplified in a cycling reaction allowing products to be measured by fluorometry.

[3] = system: ICR female mice; test: Intrauterine DHEA or 6-AN pellet and pregnancy outcome; type: in vivo, mouse
Experimental: ICR female mice had either placebo (n=26), DHEA (1.5 mg/60 days)(n=20), or 6-AN pellets (150, 15, 1.5 mcg/60 days)(n=24) placed into the uterine horn after index delivery. Females were then mated and litter size was measured over the following 120 days post pellet. Mice were housed according to the Institutional Animal Care and use Committee and NIH guidelines. Day to first litter, number of litters, number of pups, average pups/litter were recorded. Serum DHEA levels were quantified (Alpco, Salem, N.H.). All pellets (placebo, DHEA, 6-AN) were custom-formulated (Innovative Research, Inc).

[4] = system: oocytes from rats; conditions: DHEA 1 mg/100 g or 10 mg/100 g body weight, increased with dose and treatment duration; cited from earlier work

C[C@]12CC[C@H](O)CC1=CC[C@@H]1[C@@H]2CC[C@]2(C)C(=O)CC[C@@H]12 [DHEA, dehydroepiandrosterone]
Increase in DHEA serum levels ([1]; 0.01% DHEA supplementation): 1.9 fold | Serum DHEA ([1]; DHEA diets 0.01%, 0.1%, 0.6%, 48 hours after PMSG): elevated in the DHEA-fed mice in a dose-dependent fashion | Citrate, of control ([2]; 0.01% DHEA group): 90% | Citrate compared to control ([2]; 0.1% DHEA group): 83% | Mean serum levels of DHEA ([3]; DHEA pellet group, controls 0.265): 0.512 ng/mL | Average pups/litter ([3]; DHEA pellet, after 60 days, control 12.3): 10.3 pups/litter | Reduction of average pups/litter size ([3]; DHEA pellet, first litter after placement of the pellet): 55% | Average pups/litter ([3]; DHEA pellet, first litter, control 13.0): 5.9 pups/litter | Average time to first litter ([3]; intrauterine pellet: DHEA 1.5 mg/60 days, 6-AN 150, 15, 1.5 mcg/60 days, controls 27 days): 34 days | Percentage of degenerated oocytes [4]: ≤ 70%
